Experimental data reported in the NIST ThermoML archive (doi:10.1021/je1009619).

Assays:
[1] = Liquid, Vibrating tube method
[2] = xn = mol fraction of the nth substance listed; conditions: Liquid, Vibrating tube method, x1 = 1

C=C(C)[C@H]1CC=C(C)CC1 [(R)-1-methyl-4-(1-methylethenyl)cyclohexene]
mass density [kg/m3], [1]
Conditions | 283.15 K | 298.15 K | 313.15 K | 328.15 K | 343.15 K | 358.15 K
20000 kPa | 862 | 851.5 | 841 | 830.5 | 820.1 | 810.2
25000 kPa | 864.9 | 854.5 | 844.2 | 833.8 | 823.7 | 813.9
30000 kPa | 867.7 | 857.6 | 847.2 | 837.2 | 827.3 | 817.6
35000 kPa | 870.4 | 860.9 | 850.3 | 840.4 | 831.1 | 821.3
40000 kPa | 873.3 | 863.4 | 853.3 | 843.8 | 834.6 | 824.8

C=C(C)[C@H]1CC=C(C)CC1 [(R)-1-methyl-4-(1-methylethenyl)cyclohexene] + CC1=CC[C@H]2C[C@@H]1C2(C)C
mass density [kg/m3], [2]
Conditions | 283.15 K | 298.15 K | 313.15 K | 328.15 K | 343.15 K | 358.15 K
20000 kPa | 862 | 851.5 | 841 | 830.5 | 820.1 | 810.2
25000 kPa | 864.9 | 854.5 | 844.2 | 833.8 | 823.7 | 813.9
30000 kPa | 867.7 | 857.6 | 847.2 | 837.2 | 827.3 | 817.6
35000 kPa | 870.4 | 860.9 | 850.3 | 840.4 | 831.1 | 821.3
40000 kPa | 873.3 | 863.4 | 853.3 | 843.8 | 834.6 | 824.8

CC1=CC[C@H]2C[C@@H]1C2(C)C [(S)-2-pinene]
mass density [kg/m3], [1]
Conditions | 283.15 K | 298.15 K | 313.15 K | 328.15 K | 343.15 K | 358.15 K
20000 kPa | 880 | 868.8 | 858 | 846.7 | 835.9 | 825
25000 kPa | 883.2 | 872.1 | 861.3 | 850.4 | 839.7 | 829.2
30000 kPa | 886.3 | 875.3 | 864.7 | 854 | 843.8 | 833.3
35000 kPa | 889.4 | 878.6 | 867.9 | 857.5 | 847.7 | 837.4
40000 kPa | 892.5 | 881.9 | 871.3 | 861.1 | 851.4 | 841.5
